Experimental data published in patent publication US11161818B2, “Quinolone derivatives, preparation methods and application thereof” (Hangzhou Normal University, priority 2019, dated 2021).
Counter-ions that a name gives are not always drawn.

Legend:
S. aureus = test: Bactericidal activity test, filter paper inhibition zone; format: cell-based, Staphylococcus aureus; settings: filter paper diameter 6 mm, 37° C., 24 hours; for S. aureus inhibition zone: sample concentration 10 mg/mL
Experimental: (§1) In order to determine the practicability of the compounds synthesized in this patent, some of the compounds are selected as representatives, and the bactericidal activity is determined by conventional methods. The specific operation procedures are as follows:
(§2) In a super clean bench, the preserved strains are transferred to a slant tube, cultured in an incubator at 37° C. for 24 hours, and then taken out and preserved at low temperature for antibacterial experiments. The well-grown colonies are scraped and transferred into a liquid medium with the inoculation ring, shaken to give a uniform mixture, and cultured in the incubator at 37° C. for 24 hours. The culture medium is poured into plates, about 15 ml for each plate, which are placed horizontally, and after solidification, placed upside down into the incubator at 37° C.; after two days, it is observed whether there is colony growth. If not, it can be used for the next experiment, otherwise, the plate needs to be poured again. 0.5 ml of bacterial suspension is pipetted into the plate, which is left to stand still for about 5 minutes, and then spread evenly with a coating rod; two duplicate plates are set for each kind of bacteria. In the super clean bench, the plates are divided equally and parallel groups are set. Each piece of filter paper (6 mm in diameter) is a paste. The filter paper is picked up with tweezers, dipped into a sample, taken out, placed at a given position of the plate, and gently pressed to make the filter paper firmly adhered thereto. The plate is placed (upside down) in the incubator for culture; the temperature is set at 37° C.; and after 24 hours culture, the plate is observed and the results are recorded.

B. subtilis = test: as above; format: cell-based, Bacillus subtilis; settings: filter paper diameter 6 mm, 37° C., 24 hours; for B. subtilis inhibition zone: sample concentration 10 mg/mL
Experimental: as §1, §2

[1] = tested on: MRSA (methicillin-resistant Staphylococcus aureus); test: as above; format: cell-based; settings: filter paper diameter 6 mm, 37° C., 24 hours; for MRSA inhibition zone: sample concentration 10 mg/mL
Experimental: as §1, §2

E. coli = test: as above; format: cell-based; settings: filter paper diameter 6 mm, 37° C., 24 hours; for E. coli activity inhibition zone: sample concentration 10 mg/mL
Experimental: as §1, §2

[2] = tested on: liver cancer cells (HepG2); test: Anti-tumor activity test, MTT method; format: cell-based, human; settings: concentration 0.5 mg/ml (DMSO as solvent), 44 + 4 hours culture
Experimental: (§3) For the anti-tumor activity test of these compounds, three kinds of common tumor cells are taken as research subjects: non-small cell lung cancer cells (HCC827), lung cancer cells (A549) and liver cancer cells (HepG2). Under the action of the new quinolone derivatives, the growth of the cells is observed, and the proliferation of tumor cells is measured by MTT method. The specific operation is as follows: the tumor cells are inoculated into 96-well culture plate in a particular amount of cells, with a cell density of 2×10^4 cells/ml; after overnight in the incubator with a concentration of 5% CO2 at 37° C., the screened samples are added (reference can be made to Table 1 for sample concentration; 10 μL/well of corresponding concentration of drugs are added to the dosing group, while 10 μL/well of PBS are added to the control group). After 44 hours of culture, 10 μL/well of MTT are added to continue the culture for 4 hours, which is dissolved with DMSO, shaken, and detected with a 570 nm enzyme-labeled instrument.

[3] = tested on: non-small cell lung cancer cells (HCC827); test: Anti-tumor activity test, MTT method; format: cell-based; settings: concentration 0.5 mg/ml (DMSO as solvent), 44 + 4 hours culture
Experimental: as §3

lung cancer cells (A549) = test: Anti-tumor activity test, MTT method; format: cell-based; settings: concentration 0.5 mg/ml (DMSO as solvent), 44 + 4 hours culture
Experimental: as §3

SMILES | S. aureus inhibition zone (S. aureus) | B. subtilis inhibition zone (B. subtilis) | MRSA inhibition zone [1] | E. coli activity inhibition zone (E. coli) | further results
CCOC(=O)c1cn(-c2ccc(Oc3ccc(Cl)cc3)cc2)c2cc(Cl)c(F)cc2c1=O [Compound I-3, ethyl 7-chloro-1-(4-(4-chlorophenoxy)phenyl)-6-fluoro-4-oxy-1,4-dihydroquinoline-3-carboxylate] | 20 mm | 18 mm | 8 mm | 24 mm | IC50 [2]: 7.5 µM; IC50 [3]: 4.5 µM; IC50 (lung cancer cells (A549)): > 10 µM
CCOC(=O)c1cn(-c2ccc(Oc3ccccc3)cc2)c2cc(Cl)c(F)cc2c1=O [Compound I-4, ethyl 7-chloro-6-fluoro-4-oxy-1-(4-phenoxyphenyl)-1,4-dihydroquinoline-3-carboxylate] | 19 mm | 23 mm | 9 mm | 27 mm | 
CCOC(=O)c1cn(-c2ccc(Oc3ccc(F)cc3)cc2)c2cc(Cl)c(F)cc2c1=O [Compound I-7, ethyl 7-chloro-6-fluoro-1-(4-(4-fluorophenoxy)phenyl)-4-oxy-1,4-dihydroquinoline-3-carboxylate] | 15 mm | 13 mm | 7 mm | 17 mm | 
CCOC(=O)c1cn(-c2ccc(Oc3ccc(C)cc3)cc2)c2cc(Cl)c(F)cc2c1=O [Compound I-8, ethyl 7-chloro-6-fluoro-1-(4-(4-toluoxy)phenyl)-4-oxy-1,4-dihydroquinoline-3-carboxylate] | 13 mm | 12 mm | 10 mm | 12 mm | 
CCOC(=O)c1cn(-c2ccc(Oc3ccc(C(C)(C)C)cc3)cc2)c2cc(Cl)c(F)cc2c1=O [Compound I-10, ethyl 7-chloro-6-fluoro-1-(4-(4-tert-butylphenoxy)phenyl)-4-oxy-1,4-dihydroquinoline-3-carboxylate] | 20 mm | 20 mm | 14 mm | 24 mm | 
CCOC(=O)c1cn(-c2ccc(Oc3ccc(OC)cc3)cc2)c2cc(Cl)c(F)cc2c1=O [Compound I-11, ethyl 7-chloro-6-fluoro-1-(4-(4-methoxyphenoxy)phenyl)-4-oxy-1,4-dihydroquinoline-3-carboxylate] | 11 mm | 13 mm | 7 mm | 22 mm | 
CCOC(=O)c1cn(-c2ccc(Oc3ccc(OC(F)(F)F)cc3)cc2)c2cc(Cl)c(F)cc2c1=O [Compound I-12, ethyl 7-chloro-6-fluoro-1-(4-(4-trifluoromethoxyphenoxy)phenyl)-4-oxy-1,4-dihydroquinoline-3-carboxylate] | 24 mm | 8 mm | 8 mm | 28 mm | IC50 [2]: 8.5 µM; IC50 [3]: > 10 µM; IC50 (lung cancer cells (A549)): > 10 µM
CCOC(=O)c1cn(-c2ccc(Oc3ccc(C(F)(F)F)cc3)cc2)c2cc(Cl)c(F)cc2c1=O [Compound I-14, ethyl 7-chloro-6-fluoro-1-(4-(4-trifluoromethylphenoxy)phenyl)-4-oxy-1,4-dihydroquinoline-3-carboxylate] | 20 mm | 15 mm | 12 mm | 27 mm | 
CCOC(=O)c1cn(-c2ccc(Oc3ccc(Cl)c(Cl)c3)cc2)c2cc(Cl)c(F)cc2c1=O [Compound I-15, ethyl 7-chloro-1-(4-(3,4-dichlorophenoxy)phenyl)-6-fluoro-4-oxy-1,4-dihydroquinoline-3-carboxylate] | 20 mm | 18 mm | 9 mm | 21 mm | 
CCOC(=O)c1cn(-c2ccc(Oc3ccc(C)c(C)c3)cc2)c2cc(Cl)c(F)cc2c1=O [Compound I-17, ethyl 7-chloro-1-(4-(3,4-dimethylphenoxyl)phenyl)-6-fluoro-4-oxy-1,4-dihydroquinoline-3-carboxylate] | 20 mm | 11 mm | 7 mm | 29 mm | 
CCOC(=O)c1cn(Cc2ccc(Oc3ccc(Cl)cc3)cc2)c2cc(Cl)c(F)cc2c1=O [Compound I-20, ethyl 7-chloro-1-(4-(4-chlorophenoxy)benzyl)-6-fluoro-4-oxy-1,4-dihydroquinoline-3-carboxylate] | 21 mm | 12 mm | 10 mm | 24 mm | 
CCOC(=O)c1cn(Cc2ccc(Oc3ccccc3C)cc2)c2cc(Cl)c(F)cc2c1=O [Compound I-22, ethyl 7-chloro-1-(4-(2-methylphenoxy)benzyl)-6-fluoro-4-oxy-1,4-dihydroquinoline-3-carboxylate] | 23 mm | 18 mm | 14 mm | 30 mm | 
O=C(O)c1cn(-c2ccc(Oc3ccc(Cl)cc3)cc2)c2cc(Cl)c(F)cc2c1=O [Compound I-26, 7-chloro-1-(4-(4-chlorophenoxy)phenyl)-6-fluoro-4-oxy-1,4-dihydroquinoline-3-carboxylic acid] | 29 mm | 24 mm | 15 mm | 29 mm | IC50 [2]: 5 µM; IC50 [3]: 5 µM; IC50 (lung cancer cells (A549)): > 10 µM
COc1ccc(Oc2ccc(-n3cc(C(=O)O)c(=O)c4cc(F)c(Cl)cc43)cc2)cc1 [Compound I-28, 7-chloro-1-(4-(4-methoxyphenoxy)phenyl)-6-fluoro-4-oxy-1,4-dihydroquinoline-3-carboxylic acid] | 29 mm | 28 mm | 11 mm | 25 mm | 
C[C@H]1COc2c(N3CCN(C)CC3)c(F)cc3c(=O)c(C(=O)O)cn1c23 [Control group, levofloxacin hydrochloride, reference compound] |  |  |  |  | zone of inhibition at 5000 µg/mL (S. aureus; Staphylococcus aureus, control concentration 5 mg/mL): 26 mm; zone of inhibition at 5000 µg/mL (B. subtilis; Bacillus subtilis, control concentration 5 mg/mL): 22 mm; zone of inhibition at 5000 µg/mL ([1]; Staphylococcus aureus, MRSA, control concentration 5 mg/mL): 12 mm; zone of inhibition at 5000 µg/mL (E. coli; Escherichia coli, control concentration 5 mg/mL): 25 mm
CC(=O)O[C@H]1C(=O)[C@@]2(C)[C@H]([C@H](OC(=O)c3ccccc3)[C@]3(O)C[C@H](OC(=O)[C@H](O)[C@@H](NC(=O)c4ccccc4)c4ccccc4)C(C)=C1C3(C)C)[C@]1(OC(C)=O)CO[C@@H]1C[C@@H]2O [Paclitaxel, reference compound] |  |  |  |  | IC50 ([2]; Homo sapiens): 1.5 µM; IC50 ([3]; Homo sapiens): 2.5 µM; IC50 (lung cancer cells (A549); Homo sapiens): 3.5 µM
